Reference: US8071591B2, “7-cycloalkylaminoquinolones as GSK-3 inhibitors” (Kyorin Pharmaceutical Co., Ltd., priority 2009, dated 2011)

How the values were obtained:
HepG2 cells = test: GS activation: [3H]glucose incorporation into glycogen in HepG2 cells; type: cell-based; settings: Homo sapiens, 3 hrs incubation with D-[2-3H]glucose, serum-free low-glucose DMEM, read-out: EC50 for glycogen synthesis
Procedure: HepG2 cells were obtained from the Japanese Collection of Research Bioresources and were grown in standard culture medium, a low-glucose Dulbecco's modified Eagle's medium (DMEM) containing 10% fetal calf serum supplemented with 100 U/mL penicillin and 100 μg/mL streptomycin, in a humidified and 5% CO2 atmosphere kept at 37° C. The HepG2 cells were harvested with 0.25% trypsin solution containing 1 mM EDTA, and were seeded on 12 well plates at 1×10^5 cells per well. Following a culture for 3 days, the cells were washed once with phosphate buffered saline (PBS), and were incubated with serum-free low-glucose DMEM supplemented with 100 U/mL penicillin and 100 μg/mL streptomycin. Following a culture for 3 hrs, GSK-3 inhibitor at various concentration and 2.5 μCi/mL D-[2-^3H]glucose (New England Nuclear, Boston, Mass., USA) were added to the serum-free low-glucose DMEM. A vehicle control of DMSO (0.3%, final concentration) was also used. Total volume per well of the reaction medium was 1.0 mL of serum-free low-glucose DMEM. After incubation at 37° C. for 3 hrs, medium was aspirated and cells were washed twice with PBS, and were added 0.25 mL of 1 N KOH containing 0.4 mg/mL carrier glycogen. […] [^3H]Glucose incorporation into glycogen was assessed using a liquid scintillation counter (Packard Instrument Co., Meriden, Conn., USA).

Male Crlj:CD1 (ICR) mice = test: Glucose tolerance study in fasted ICR mice; type: in vivo; settings: 10 mg/kg orally, 30 minutes before oral glucose load (5 g/kg), fasted 7-week-old ICR mice
Procedure: Male Crlj:CD1 (ICR) mice were obtained from Charles River Laboratories Japan (Yokohama, Japan). All mice were given a standard diet (Clea Japan, Tokyo, Japan) and tap water ad libitum. All institutional guidelines for animal care and use were applied in this study. Test compounds were suspended in 0.3% carbozymethyl-cellulose sodium salt (CMC-Na; Sigma, St. Louis, Mo.). After fasting for 15-17 hours, the test compound (3, 10, 30, 100 or 300 mg/kg) or vehicle (0.3% CMC-Na) was orally administered to 7-week-old ICR mice. Glucose solution (5 g/kg) was orally administered at 30 minutes after test compound treatment. Blood samples were collected from tail vein using capillary tubes containing EDTA-2K before test compound treatment, and at 0, 0.5, 1, and 2 hours after glucose load. The blood samples were centrifuged at 2,500×g for 5 minutes and separated plasma was kept on ice and analyze in the same day. Plasma glucose levels were determined using the glucose CII-test (Wako Pure Chemical Industries, Osaka, Japan). The sum of plasma glucose levels at 0.5 and 1 hr after glucose load was compared to that of vehicle treatment, and results were presented as percent decrease.

Compound | EC50 (HepG2 cells) [nM] | percent decrease of the sum of plasma glucose levels at 0.5 and 1 hr after glucose load vs vehicle (Male Crlj:CD1 (ICR) mice) [%]
C[C@H]1COc2c(NC3CCCC(c4cccnc4)C3)c(F)c(N)c3c(=O)c(C#N)cn1c23 (stereo in doubt) [Example 9, (3S)-8-amino-9-fluoro-2,3-dihydro-3-methyl-7-oxo-10-[trans-3-(3-pyridyl)cyclohexylamino]-7H-pyrido[1,2,3-de][1,4]benzoxazine-6-carbonitrile] | ≤ 300 | –
C[C@H]1COc2c(N[C@@H]3CC[C@@H](c4ccccn4)C3)c(F)c(N)c3c(=O)c(C#N)cn1c23 [Example 2, (3S)-8-amino-9-fluoro-2,3-dihydro-3-methyl-7-oxo-10-[(1R,3R)-3-(2-pyridyl)cyclopentylamino]-7H-pyrido[1,2,3-de][1,4]benzoxazine-6-carbonitrile] | – | 22
C[C@H]1COc2c(N[C@H]3CC[C@H](c4cccnc4)CC3)c(F)c(N)c3c(=O)c(C#N)cn1c23 [Example 7, (3S)-8-amino-9-fluoro-2,3-dihydro-3-methyl-7-oxo-10-[trans-4-(3-pyridyl)cyclohexylamino]-7H-pyrido[1,2,3-de][1,4]benzoxazine-6-carbonitrile] | ≤ 300 | –
